Measured values: PMC11800397, “Identification of the Polymerizing Glycosyltransferase Required for the Addition of D-Glucuronic Acid to the Capsular Polysaccharide of Campylobacter jejuni” (Biochemistry, 2025)

Key:
[1] = target: T1, Cj1438C (C-terminal domain of Cj1438) (Campylobacter jejuni, UniProt Q0P8H6); assay: product analysis by ESI-MS, 1H and […] NMR; format: biochemical; conditions: 5.0 mM ATP, 10 mM MgCl2, 50 mM NH4HCO3, pH 8.0, 25 °C, 4 h
T1 construct: C-terminal hexahistidine tag (pET31b(+)); E. coli; 40,084 Da

[2] = test system: CO[C@@H]1O[C@H](CO)[C@@H](O)[C@H]1O; assay: purified protein; conditions: 2.0 mM UDP-D-GlcA fixed, 0-25 mM substrate, 10 μM enzyme, 50 mM NH4HCO3, pH 8.0, 25 °C

T1 sequence (Q0P8H6 entry or part of it): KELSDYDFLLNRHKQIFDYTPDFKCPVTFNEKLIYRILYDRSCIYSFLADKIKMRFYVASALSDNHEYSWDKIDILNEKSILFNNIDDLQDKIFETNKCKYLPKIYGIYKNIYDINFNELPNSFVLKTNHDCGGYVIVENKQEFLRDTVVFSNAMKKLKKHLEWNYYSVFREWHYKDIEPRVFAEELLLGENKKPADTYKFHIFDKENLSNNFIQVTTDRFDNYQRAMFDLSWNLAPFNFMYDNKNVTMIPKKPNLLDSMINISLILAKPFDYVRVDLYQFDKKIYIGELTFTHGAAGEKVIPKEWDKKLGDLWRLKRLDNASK

CO[C@@H]1O[C@H](CO)[C@@H](O)[C@H]1O[C@H]1O[C@H](C(=O)O)[C@@H](O)[C@H](O)[C@H]1O [7a, compound 7a]
product analysis by ESI-MS, 1H and 31P NMR ([1]; 5.0 mM (S)-serinol phosphate): Incubation of Cj1438C with ATP, MgCl2, compound 7a, and (S)-serinol-P resulted in the formation

Cj1432N (N-terminal domain of Cj1432) (Campylobacter jejuni subsp. jejuni NCTC 11168 = ATCC 700819)
Km [2]: 970 ± 90 µM | kcat [2]: 0.0085 ± 0.00017 s⁻¹

N[C@@H](CO)COP(=O)(O)O [(S)-serinol phosphate]
product analysis by ESI-MS, 1H and 31P NMR ([1]; 5.0 mM compound 7a): Incubation of Cj1438C with ATP, MgCl2, compound 7a, and (S)-serinol-P resulted in the formation
